The values that follow come from ChEMBL document CHEMBL2169811, “Oncoepigenomics: making histone lysine methylation count” (Eur J Med Chem, 2012).

Assay [1] addresses T1, Lysine-specific demethylase 4E (Homo sapiens, UniProt B2RXH2).
T1 sequence (B2RXH2 whole entry): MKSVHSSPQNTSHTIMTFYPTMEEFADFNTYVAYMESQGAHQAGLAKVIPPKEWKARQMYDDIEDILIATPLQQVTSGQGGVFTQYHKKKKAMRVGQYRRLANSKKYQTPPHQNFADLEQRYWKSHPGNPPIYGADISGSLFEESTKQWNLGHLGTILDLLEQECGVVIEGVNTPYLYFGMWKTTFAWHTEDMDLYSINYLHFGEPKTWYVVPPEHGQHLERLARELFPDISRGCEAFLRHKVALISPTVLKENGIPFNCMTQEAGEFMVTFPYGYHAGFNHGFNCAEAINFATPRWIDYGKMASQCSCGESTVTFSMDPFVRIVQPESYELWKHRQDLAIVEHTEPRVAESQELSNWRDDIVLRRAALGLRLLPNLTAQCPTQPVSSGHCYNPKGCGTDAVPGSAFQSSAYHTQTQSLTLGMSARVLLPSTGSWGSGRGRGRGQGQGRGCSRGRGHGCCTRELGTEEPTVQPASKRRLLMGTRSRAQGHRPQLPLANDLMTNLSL
Description: Inhibition of JMJD2E catalytic domain by mass spectrophotometric analysis

The target in assay [2] is T2, Histone-lysine N-methyltransferase EHMT2 (Homo sapiens, UniProt Q96KQ7).
T2 sequence (Q96KQ7 whole entry): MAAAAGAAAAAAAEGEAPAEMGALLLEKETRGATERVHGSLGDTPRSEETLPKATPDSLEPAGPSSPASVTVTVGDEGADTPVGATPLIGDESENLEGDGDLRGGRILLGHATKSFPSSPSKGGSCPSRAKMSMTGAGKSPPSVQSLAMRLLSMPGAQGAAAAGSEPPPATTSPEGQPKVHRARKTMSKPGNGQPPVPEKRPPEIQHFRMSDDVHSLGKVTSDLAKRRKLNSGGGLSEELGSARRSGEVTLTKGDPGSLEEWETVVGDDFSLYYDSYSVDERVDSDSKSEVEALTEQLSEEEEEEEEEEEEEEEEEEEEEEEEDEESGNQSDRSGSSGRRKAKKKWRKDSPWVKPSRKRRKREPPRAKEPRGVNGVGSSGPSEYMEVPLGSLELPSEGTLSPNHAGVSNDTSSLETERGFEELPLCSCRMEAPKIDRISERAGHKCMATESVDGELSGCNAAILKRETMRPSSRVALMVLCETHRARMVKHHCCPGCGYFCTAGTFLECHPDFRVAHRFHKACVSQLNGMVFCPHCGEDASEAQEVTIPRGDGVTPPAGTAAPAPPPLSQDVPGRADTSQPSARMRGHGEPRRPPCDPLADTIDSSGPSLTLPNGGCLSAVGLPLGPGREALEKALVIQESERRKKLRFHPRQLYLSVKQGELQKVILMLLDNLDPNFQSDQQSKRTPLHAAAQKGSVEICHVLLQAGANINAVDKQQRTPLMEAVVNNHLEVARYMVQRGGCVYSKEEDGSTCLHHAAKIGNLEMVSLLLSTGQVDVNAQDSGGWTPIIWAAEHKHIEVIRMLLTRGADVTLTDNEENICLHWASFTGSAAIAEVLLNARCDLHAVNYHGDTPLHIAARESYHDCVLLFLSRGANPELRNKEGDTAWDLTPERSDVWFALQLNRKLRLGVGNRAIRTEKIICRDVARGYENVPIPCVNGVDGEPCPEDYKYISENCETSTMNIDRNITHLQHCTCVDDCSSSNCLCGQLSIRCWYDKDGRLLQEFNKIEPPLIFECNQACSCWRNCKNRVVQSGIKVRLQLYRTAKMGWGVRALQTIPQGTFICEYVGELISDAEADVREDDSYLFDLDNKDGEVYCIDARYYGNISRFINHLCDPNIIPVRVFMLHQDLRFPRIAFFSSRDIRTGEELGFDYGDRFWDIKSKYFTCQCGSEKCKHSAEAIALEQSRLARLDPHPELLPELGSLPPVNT
In words: Inhibition of G9a.

Assay [3] has as its target T3, Histone-lysine N-methyltransferase SUV39H1 (Homo sapiens, UniProt O43463).
T3 sequence (O43463 whole entry): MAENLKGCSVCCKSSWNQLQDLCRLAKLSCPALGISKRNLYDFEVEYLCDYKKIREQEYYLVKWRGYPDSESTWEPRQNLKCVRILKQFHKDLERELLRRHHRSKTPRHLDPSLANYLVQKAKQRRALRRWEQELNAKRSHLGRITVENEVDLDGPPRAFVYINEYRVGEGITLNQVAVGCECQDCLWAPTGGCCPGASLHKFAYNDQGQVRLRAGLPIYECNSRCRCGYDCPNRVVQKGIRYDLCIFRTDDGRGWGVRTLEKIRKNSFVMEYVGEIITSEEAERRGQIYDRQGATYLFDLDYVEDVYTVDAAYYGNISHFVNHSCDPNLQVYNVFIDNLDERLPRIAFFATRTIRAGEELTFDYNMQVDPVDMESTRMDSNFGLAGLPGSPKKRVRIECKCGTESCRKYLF

Assay [4] has as its target T2, Histone-lysine N-methyltransferase EHMT2.
Description: Inhibition of GST-tagged G9a after 1 hr by radioactive filter-binding assay
The next assay has as its system PC-3. In words: Growth inhibition of human PC3 cells after 48 hrs by MTT assay. Format: functional. To be noted: PC-3, 48 h. In general terms: Formazan colour is commonly taken as a measure of viable cells.
In assay [5] the test system is HCT-116. In words: Growth inhibition of human HCT116 cells after 48 hrs by MTT assay. The note with it: HCT-116, 48 h. Format: functional.
The test system of the next assay is SH-SY5Y. The assay can be described thus: Growth inhibition of human SH-SY5Y cells after 48 hrs by MTT assay. Format: functional.
The subject of another assay is HeLa. In words: Growth inhibition of human HeLa cells after 48 hrs by MTT assay. Format: functional.
The nature of assay [6]: Growth inhibition of human KYSE-150 cells after 48 hrs by MTT assay. Format: functional. To be noted: KYSE-150, 48 h.
Assay [7] has as its target T2, Histone-lysine N-methyltransferase EHMT2. The assay can be described thus: Inhibition of G9a using [3H]-SAM as substrate preincubated for 10 mins before substrate addition measured after 30 mins by scintillation counter.
For assay [8], the target named is T4, Histone-arginine methyltransferase CARM1 (Homo sapiens, UniProt Q86X55).
T4 sequence (Q86X55 whole entry): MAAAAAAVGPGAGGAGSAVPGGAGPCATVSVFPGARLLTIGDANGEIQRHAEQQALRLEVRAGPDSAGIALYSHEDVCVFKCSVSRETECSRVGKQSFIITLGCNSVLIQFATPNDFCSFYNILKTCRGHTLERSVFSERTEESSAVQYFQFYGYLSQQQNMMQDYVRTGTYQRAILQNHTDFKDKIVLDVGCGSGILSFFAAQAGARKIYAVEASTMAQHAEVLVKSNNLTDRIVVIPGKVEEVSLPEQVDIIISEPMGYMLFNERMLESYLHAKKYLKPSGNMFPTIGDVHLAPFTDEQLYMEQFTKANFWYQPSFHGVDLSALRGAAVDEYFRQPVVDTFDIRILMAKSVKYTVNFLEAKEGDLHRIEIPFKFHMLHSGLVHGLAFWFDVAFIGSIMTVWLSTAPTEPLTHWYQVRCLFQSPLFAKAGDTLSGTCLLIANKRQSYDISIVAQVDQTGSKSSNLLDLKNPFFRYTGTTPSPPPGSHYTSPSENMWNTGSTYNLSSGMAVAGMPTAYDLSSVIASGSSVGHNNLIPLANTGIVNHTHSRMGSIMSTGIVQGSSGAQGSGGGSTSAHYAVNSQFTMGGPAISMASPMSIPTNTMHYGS
Description: Inhibition of human CARM1 expressed in Escherichia coli BL21 (DE3) using [3H]-SAM as substrate preincubated for 10 mins before substrate addition measured after 30 mins by scintillation counter

Assay [9] deals with T3, Histone-lysine N-methyltransferase SUV39H1. In words: Inhibition of SUV39H1 using [3H]-SAM as substrate preincubated for 10 mins before substrate addition measured after 30 mins by scintillation counter.
For assay [10], the target named is Protein arginine N-methyltransferase 1 (Homo sapiens, UniProt Q99873).
Description: Inhibition of PRMT1 using [3H]-SAM as substrate preincubated for 10 mins before substrate addition measured after 30 mins by scintillation counter
The target of assay [11] is T1, Lysine-specific demethylase 4E. In words: Inhibition of JMJD2E.
Assay [12] shares this target. In words: Inhibition of human JMJD2E.
The species entered for assay [13] is Homo sapiens. The assay can be described thus: Selectivity ratio of IC50 for DOT1L to IC50 for human SMYD2.
The species named for assay [14] is Homo sapiens. The assay can be described thus: Selectivity ratio of IC50 for SET7/9 to IC50 for human SMYD2.
Assay [15] has as its target T5, N-lysine methyltransferase SMYD2 (Homo sapiens, UniProt Q9NRG4). In words: Competitive binding affinity to full length human SMYD2 amino acid 1 to 433 expressed in Escherichia coli BL21 (DE3) after 90 mins by radioactive filter-binding assay in presence of P53 peptide.
The species named for assay [16] is Homo sapiens. The assay can be described thus: Selectivity ratio of IC50 for G9a to IC50 for human SMYD2.
The species named for assay [17] is Homo sapiens. In words: Selectivity ratio of IC50 for SMYD3 to IC50 for human SMYD2.
The species entered for assay [18] is Homo sapiens. In words: Selectivity ratio of IC50 for GLP to IC50 for human SMYD2.
The target in assay [19] is T5, N-lysine methyltransferase SMYD2. The assay can be described thus: Inhibition of full length human SMYD2 amino acid 1 to 433 expressed in Escherichia coli BL21 (DE3) using Biotinaminohexanoyl- GSRAHSSHLKSKKGQSTSRH as substrate after 75 mins by AlphaScreen assay. A general note: Alpha assays give light when donor and acceptor beads are brought close together.
For assay [20], the species on record is Homo sapiens. The assay can be described thus: Selectivity ratio of IC50 for EZH2 to IC50 for human SMYD2.
The subject of another assay is RKO. The assay can be described thus: Growth inhibition of human RKO cells expressing p53 after 24 to 48 hrs by MTT assay. Format: functional.
In assay [21] the test system is HCT-116. The assay can be described thus: Growth inhibition of human HCT116 cells after 24 to 48 hrs by MTT assay. Format: functional.
Assay [22] has as its target Lysine-specific histone demethylase 1A (Homo sapiens, UniProt O60341).
Description: Inhibition of full length N-terminal 6x His-tagged human LSD1 expressed in Escherichia coli BL21 (DE3) using H3K4me2 peptide as substrate by luminol dependent chemiluminescence assay

T5 sequence (Q9NRG4 whole entry): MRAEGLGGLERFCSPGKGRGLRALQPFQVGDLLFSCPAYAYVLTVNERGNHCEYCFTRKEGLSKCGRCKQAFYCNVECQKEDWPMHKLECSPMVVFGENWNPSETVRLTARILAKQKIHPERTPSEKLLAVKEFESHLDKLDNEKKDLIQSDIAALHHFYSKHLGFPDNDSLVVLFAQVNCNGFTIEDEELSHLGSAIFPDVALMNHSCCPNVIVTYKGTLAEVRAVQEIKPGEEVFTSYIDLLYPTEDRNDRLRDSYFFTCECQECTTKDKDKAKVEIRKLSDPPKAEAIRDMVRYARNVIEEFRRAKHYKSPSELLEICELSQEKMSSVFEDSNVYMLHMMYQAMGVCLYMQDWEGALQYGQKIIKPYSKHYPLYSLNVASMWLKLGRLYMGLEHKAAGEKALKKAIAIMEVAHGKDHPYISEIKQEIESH
Chain of Protein arginine N-methyltransferase 1 (Q99873 whole entry): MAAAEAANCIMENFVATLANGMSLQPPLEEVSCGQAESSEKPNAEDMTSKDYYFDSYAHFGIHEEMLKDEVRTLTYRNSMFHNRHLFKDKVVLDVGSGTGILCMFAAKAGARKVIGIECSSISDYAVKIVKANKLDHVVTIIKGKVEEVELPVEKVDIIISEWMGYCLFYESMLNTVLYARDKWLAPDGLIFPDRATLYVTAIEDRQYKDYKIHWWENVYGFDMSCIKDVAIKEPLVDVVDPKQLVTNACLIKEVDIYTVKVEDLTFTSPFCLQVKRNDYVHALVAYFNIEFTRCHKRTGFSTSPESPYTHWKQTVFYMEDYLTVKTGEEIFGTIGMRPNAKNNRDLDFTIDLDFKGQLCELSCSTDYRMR

One may read the IC50 as the concentration that gives 50% inhibition. Read a low IC50 as higher potency. `O=C(O)c1ccnc(-c2cc(C(=O)NCCc3ccccc3)ccn2)c1` had an IC50 in [1] of 0.11 µM.
As for `CN1C(=O)[C@@]23C[C@]4([C@]56C[C@@]78SS[C@@](C)(C(=O)N7[C@H]5Nc5ccccc56)N(C)C8=O)c5ccccc5N[C@@H]4N2C(=O)[C@]1(C)SS3`, the results for the IC50 in assay [2] and in [3] were 0.63 µM and 0.53 µM, respectively.
The matching figures for `CS[C@]1(CO)C(=O)N2[C@H]3C(=CC=C[C@@H]3OC(C)=O)C[C@@]2(SC)C(=O)N1C`: over 10 µM and over 10 µM.
Consider `CN1C(=O)[C@]23C[C@@]4([C@@]56C[C@]78SS[C@](CO)(C(=O)N7[C@@H]5Nc5ccccc56)N(C)C8=O)c5ccccc5N[C@H]4N2C(=O)[C@@]1(CO)SS3`, for which the IC50 in [4] was 1.7 µM.
As usually defined, the GI50 is the concentration that inhibits growth by half. Low readings indicate greater sensitivity of the cells, high ones lower sensitivity of the cells. In the case of `NC1CC1c1cccc(OCC[C@H](NC(=O)c2ccccc2)C(=O)NCc2ccccc2)c1` (stereo partly drawn), the GI50 (with PC-3; with HCT-116 [5]; in the assay on SH-SY5Y; in the assay with HeLa; in [6]) was 6 µM throughout.
Take `N[C@@H](CCCN(CCI)C[C@H]1O[C@@H](n2cnc3c(NCc4ccccc4)ncnc32)[C@H](O)[C@@H]1O)C(=O)O`: the IC50 in assay [7], in assay [8], in assay [9] and in assay [10] was over 100 µM in each case.
`CNc1ncnc2c1ncn2[C@@H]1O[C@H](CN(CCI)CCC[C@H](N)C(=O)O)[C@@H](O)[C@H]1O`: the IC50 in assay [7], in assay [8] and in assay [9] was over 100 µM each time.
`O=C(O)/C=C/C(=O)N(O)CCCCNCc1ccc(COC(=O)Nc2cccc3ccccc23)cc1` came in with an IC50 in assay [11] of 5.9 µM. The compound further gave a GI50 in [6] of 5.1 µM.
Compound `O=C(O)c1ccnc(C(=O)O)c1Nc1ccccc1F` returned an IC50 in assay [12] of 2.5 µM.
In [4], `CN1C(=O)[C@H]2C[C@]3([C@]45C[C@@H]6C(=O)N(C)[C@H](CO)C(=O)N6[C@H]4Nc4ccccc45)c4ccccc4N[C@@H]3N2C(=O)[C@H]1CO` showed an IC50 of over 50 µM.
What is called Ki is the equilibrium dissociation constant of an inhibitor or competing ligand from its target. Turning to `O=C1COc2c(CCNCCN(C(=O)CCNCCc3ccc(Cl)c(Cl)c3)C3CCCCC3)ccc(O)c2N1`, the Ratio IC50 in the assay listed under Homo sapiens [13], in the assay listed under Homo sapiens [14], in the assay filed under Homo sapiens [16], in the assay listed under Homo sapiens [17], in the assay filed under Homo sapiens [18] and in the assay listed under Homo sapiens [20] was 700 in each case. In addition, the Ki in [15] was 0.3 µM. The compound further came in with an IC50 in assay [19] of 0.12 µM.
As for `CN1C(=O)[C@]23CC4=CC=C[C@H](O)[C@H]4N2C(=O)[C@@]1(CO)SS3` [GLIOTOXIN], the IC50 in [2] was 0.53 µM; in assay [3], 0.26 µM.
Consider `CCNCCCCNCCCCNCCCCNCCCCNC/C=C\CNCCCCNCCCCNCCCCNCCCCNCC`, for which the GI50 in the assay with RKO and with HCT-116 [21] was 2.5 µM each time.
On to `N[C@@H]1C[C@H]1c1ccc(OCC[C@H](NC(=O)c2ccccc2)C(=O)NCc2ccccc2)cc1`, for which the GI50 (in the assay with PC-3; with HCT-116 [5]; with SH-SY5Y; with HeLa; in [6]) was 6 µM in each case.
Regarding `CCNCCCCNCCCCNCCCCNCCCCNC/C=C/CNCCCCNCCCCNCCCCNCCCCNCC`, the GI50 with RKO and in the assay on HCT-116 [21] was 2.5 µM each time.
In the case of `NCCNC(=O)c1ccnc(-c2cc(C(=O)O)ccn2)c1`, in assay [1], 0.18 µM corresponded to half-maximal inhibition (IC50).
As for `C/N=C(\NC)NCCCNCCCNCCCN/C(=N/C)NC`, the IC50 in [22] turned out to be 0.5 µM.
